“And” between values parts separate entries of the source, which are not always exact repeats. Equal values may be shown once.
Key:
KRAS G12C = KRAS G12C (Homo sapiens, UniProt P01116+P62937, G12C); test: Disruption of BRAF RBD interaction with Ras (FRET / MOA assay, with Cyclophilin A); assay type: biochemical; conditions: KRAS G12C; read-out: KRAS G12C FRET data IC50
Method in brief: (§1)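 TR-FRET readout: a drop in ratio relative to DMSO wells marks disruption of the K-Ras:BRAF RBD complex via compound-induced K-Ras–Cyclophilin A ternary complex. Dosing used ten 3-fold steps from 30 μM final, 3 h at 25 °C, then Eu-anti-His 10 nM plus APC-anti-GST 50 nM for another 1.5 h. Values are IC50s.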

KRAS G12D = KRAS G12D (Homo sapiens, UniProt P01116+P62937, G12D); test: as above; assay type: biochemical; conditions: read-out: KRAS G12D FRET data, IC50
Method in brief: as §1

KRAS G13C = KRAS G13C (Homo sapiens, UniProt P01116+P62937, G13C); test: as above; assay type: biochemical; conditions: KRAS G13C; read-out: KRAS G13C FRET data IC50
Method in brief: as §1

KRAS G12S = KRAS G12S (Homo sapiens, UniProt P01116+P62937, G12S); test: as above; assay type: biochemical; conditions: read-out: KRAS G12S FRET data, IC50
Method in brief: as §1

NRAS G12C = NRAS G12C (Homo sapiens, UniProt P01111+P62937, G12C); test: as above; assay type: biochemical; conditions: NRAS G12C; read-out: NRAS G12C FRET data IC50
KRAS G13D = KRAS G13D (Homo sapiens, UniProt P01116+P62937, G13D); test: as above; assay type: biochemical; conditions: KRAS G13D; read-out: KRAS G13D FRET data IC50
Method in brief: as §1

KRAS WT = KRAS WT (Homo sapiens, UniProt P01116+P62937); test: as above; assay type: biochemical; conditions: KRAS WT; read-out: KRAS WT FRET data IC50
Method in brief: as §1

KRAS G12V = KRAS G12V (Homo sapiens, UniProt P01116+P62937, G12V); test: as above; assay type: biochemical; conditions: KRAS G12V; read-out: KRAS G12V FRET data IC50
Method in brief: as §1

NCI-H358 (K-Ras G12C) = test: CellTiter-Glo cell viability assay, 5-day treatment; assay type: cell-based; conditions: Homo sapiens, NCI-H358, H358, K-Ras G12C; read-out: Additional H358 Cell Viability assay data (K-Ras G12C, IC50)
Method in brief: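 Compounds were dispensed directly onto seeded cells and incubated for 5 days, then plates were equilibrated to room temperature for about 30 minutes before luminescence reading. Signals were expressed as percent of the mean DMSO control and fitted with a four-parameter logistic curve.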

[1] = system: K-Ras G12C (NCI-H358 cells); test: Potency assay: pERK (AlphaLISA SureFire or In-Cell Western); assay type: cell-based; conditions: Homo sapiens, NCI-H358; H358 KRAS G12C; read-out: pERK EC50
Description: (§2) The purpose of this assay is to measure the ability of test compounds to inhibit K-Ras in cells. […] This procedure measures a decrease in cellular pERK in response to test compounds.
(§3) NCI-H358 cells were grown and maintained using media and procedures recommended by the ATCC. On the day prior to compound addition, cells were plated in 384-well cell culture plates (40 μl/well) and grown overnight in a 37° C., 5% CO2 incubator. Test compounds were prepared in 10, 3-fold dilutions in DMSO, with a high concentration of 10 mM. On the day of assay, 40 nL of test compound was added to each well of cell culture plate using an Echo550 liquid handler (LabCyte®). Concentrations of test compound were tested in duplicate. After compound addition, cells were incubated 4 hours at 37° C., 5% CO2. Following incubation, culture medium was removed and cells were washed once with phosphate buffered saline.
(§4) In some experiments, cellular pERK level was determined using the AlphaLISA SureFire Ultra p-ERK1/2 Assay Kit (PerkinElmer). Cells were lysed in 25 μL lysis buffer, with shaking at 600 RPM at room temperature. […] After a 2-hour incubation in the dark, 5 μL donor mix was added, plate was sealed, and incubated 2 hours at room temperature. Signal was read on an Envision plate reader (PerkinElmer) using standard AlphaLISA settings. Analysis of raw data was carried out in Excel (Microsoft) and Prism (GraphPad). Signal was plotted vs. the decadal logarithm of compound concentration, and IC50 was determined by fitting a 4-parameter sigmoidal concentration response model.
In other experiments, cellular pERK was determined by In-Cell Western. […] Fixed cells were washed 4 times for 5 minutes with TBS containing 0.1% Triton X-100 (TBST) and then blocked with 100 μL Odyssey blocking buffer (LI-COR) for 60 minutes at room temperature. […] Cells were washed 4 times for 5 minutes with TBST. Secondary antibody (IR-800CW rabbit, LI-COR, diluted 1:800) and DNA stain DRAQ5 (LI-COR, diluted 1:2000) were added and incubated 1-2 hours at room temperature. Cells were washed 4 times for 5 minutes with TBST. Plates were scanned on a LI-COR Odyssey CLx Imager. Analysis of raw data was carried out in Excel (Microsoft) and Prism (GraphPad). Signal was plotted vs. the decadal logarithm of compound concentration, and IC50 was determined by fitting a 4-parameter sigmoidal concentration response model.
as §2
as §3, with “mM. On day of” for “mM. On the day of”, “assay, 40 nl of test” for “assay, 40 nL of test”
as §4, with “μl” for “μL”, “sealed” for “sealed,”

Chain of KRAS G13C (P01116 1-169 isoform P01116-2 G13C): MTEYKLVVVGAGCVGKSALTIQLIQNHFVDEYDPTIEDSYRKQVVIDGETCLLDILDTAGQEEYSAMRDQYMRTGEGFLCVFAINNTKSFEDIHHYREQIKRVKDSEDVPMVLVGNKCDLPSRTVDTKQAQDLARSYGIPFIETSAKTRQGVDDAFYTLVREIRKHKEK
Chain of KRAS G13C (P62937 whole entry): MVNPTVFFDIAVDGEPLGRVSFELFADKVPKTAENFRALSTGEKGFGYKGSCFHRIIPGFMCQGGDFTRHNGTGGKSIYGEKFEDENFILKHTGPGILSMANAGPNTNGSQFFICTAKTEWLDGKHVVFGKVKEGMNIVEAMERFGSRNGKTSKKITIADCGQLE
Chain of KRAS G13D (P01116 1-169 isoform P01116-2 G13D limits assumed): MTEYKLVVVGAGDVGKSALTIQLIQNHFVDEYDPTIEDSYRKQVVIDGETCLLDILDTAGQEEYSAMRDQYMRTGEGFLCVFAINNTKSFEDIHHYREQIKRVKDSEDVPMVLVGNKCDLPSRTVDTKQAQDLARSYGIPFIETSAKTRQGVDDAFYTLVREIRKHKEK
Chain of KRAS G13D (P62937 whole entry): as the sequence (P62937 whole entry) above
Chain of KRAS G12V (P01116 1-169 isoform P01116-2 G12V limits assumed): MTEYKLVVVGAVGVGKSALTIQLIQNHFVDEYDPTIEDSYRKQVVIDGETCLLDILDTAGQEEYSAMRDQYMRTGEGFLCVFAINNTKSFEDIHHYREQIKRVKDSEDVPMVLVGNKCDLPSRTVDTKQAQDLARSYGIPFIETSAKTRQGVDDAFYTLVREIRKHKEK
Chain of KRAS G12V (P62937 whole entry): as the sequence (P62937 whole entry) above
Chain of KRAS G12S (P01116 1-169 isoform P01116-2 G12S limits assumed): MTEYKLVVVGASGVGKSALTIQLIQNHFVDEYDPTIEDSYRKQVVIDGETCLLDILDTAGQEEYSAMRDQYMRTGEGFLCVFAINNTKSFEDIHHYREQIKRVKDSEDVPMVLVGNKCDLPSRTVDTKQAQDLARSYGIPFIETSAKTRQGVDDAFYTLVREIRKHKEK
Chain of KRAS G12S (P62937 whole entry): as the sequence (P62937 whole entry) above
Chain of NRAS G12C (P01111 whole entry G12C): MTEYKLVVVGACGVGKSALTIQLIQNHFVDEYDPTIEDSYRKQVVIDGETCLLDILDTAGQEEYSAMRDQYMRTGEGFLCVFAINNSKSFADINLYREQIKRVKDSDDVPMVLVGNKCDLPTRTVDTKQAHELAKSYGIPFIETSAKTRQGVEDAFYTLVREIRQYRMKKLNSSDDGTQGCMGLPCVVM
Chain of NRAS G12C (P62937 whole entry): as the sequence (P62937 whole entry) above
Chain of KRAS G12D (P01116 1-169 isoform P01116-2 G12D limits assumed): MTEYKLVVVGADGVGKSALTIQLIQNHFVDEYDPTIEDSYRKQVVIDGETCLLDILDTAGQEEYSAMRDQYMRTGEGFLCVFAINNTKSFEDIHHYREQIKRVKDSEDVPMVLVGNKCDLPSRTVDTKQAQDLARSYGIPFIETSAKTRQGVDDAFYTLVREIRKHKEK
Chain of KRAS G12D (P62937 whole entry): as the sequence (P62937 whole entry) above
Chain of KRAS WT (P01116 1-169 isoform P01116-2 limits assumed): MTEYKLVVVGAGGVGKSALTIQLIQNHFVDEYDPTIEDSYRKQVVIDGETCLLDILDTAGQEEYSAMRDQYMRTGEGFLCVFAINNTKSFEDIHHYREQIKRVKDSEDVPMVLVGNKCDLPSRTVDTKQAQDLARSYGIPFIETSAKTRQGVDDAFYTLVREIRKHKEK
Chain of KRAS WT (P62937 whole entry): as the sequence (P62937 whole entry) above
Chain of KRAS G12C (P01116 1-169 isoform P01116-2 G12C): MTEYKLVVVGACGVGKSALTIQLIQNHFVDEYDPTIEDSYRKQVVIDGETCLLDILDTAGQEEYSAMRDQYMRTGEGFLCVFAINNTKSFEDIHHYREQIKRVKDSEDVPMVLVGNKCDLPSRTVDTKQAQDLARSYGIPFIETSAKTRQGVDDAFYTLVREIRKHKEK
Chain of KRAS G12C (P62937 whole entry): as the sequence (P62937 whole entry) above

Row | SMILES | IC50 (KRAS G12C) | IC50 (KRAS G12D) | IC50 (KRAS G13C) | IC50 (KRAS G12S) | IC50 (NRAS G12C) | IC50 (KRAS G13D) | IC50 (KRAS WT) | IC50 (KRAS G12V) | IC50 (NCI-H358 (K-Ras G12C)) | EC50 [1]
1 | CCn1c(-c2cccnc2COC)c2c3cc(ccc31)-c1cc(O)cc(c1)C[C@H](NC(=O)[C@H](C(C)C)N(C)C(=O)[C@H]1CCN(C(=O)C#CC(C)(C)N(C)C)C1)C(=O)N1CCC[C@H](N1)C(=O)OCC(C)(C)C2 [Example A162] | < 10 nM | 1000 to 10000 nM | 100 to 1000 nM | 1000 to 10000 nM | < 10 nM | 1000 to 10000 nM | 1000 to 10000 nM | 100 to 1000 nM | < 10 nM | < 5000 nM
2 | CCn1c(-c2cccnc2COC)c2c3cc(ccc31)-c1cc(O)cc(c1)C[C@H](NC(=O)[C@H](C(C)C)N(C)C(=O)[C@H]1CCN(C(=O)/C=C\CN(C)C)C1)C(=O)N1CCC[C@H](N1)C(=O)OCC(C)(C)C2 [Example A164] | 10 to 100 nM | 1000 to 10000 nM | 100 to 1000 nM | 100 to 1000 nM | 10 to 100 nM | 100 to 1000 nM | 100 to 1000 nM | 100 to 1000 nM | 100 to 1000 nM | < 5000 nM
3 | CCn1c(-c2cccnc2[C@H](C)OC)c2c3cc(ccc31)-c1cc(O)cc(c1)C[C@H](NC(=O)[C@H](C(C)C)N(C)C(=O)[C@H]1CCN(C(=O)C#CCN3CCOCC3)C1)C(=O)N1CCC[C@H](N1)C(=O)OCC(C)(C)C2 [Example A182] | 10 to 100 nM and < 10 nM | 1000 to 10000 nM and > 10000 nM | 1000 to 10000 nM and 10 to 100 nM | 100 to 1000 nM and 1000 to 10000 nM | 10 to 100 nM and < 10 nM | 100 to 1000 nM and 1000 to 10000 nM | 100 to 1000 nM and 1000 to 10000 nM | 100 to 1000 nM and 1000 to 10000 nM | 10 to 100 nM | < 5000 nM

Now from value to compound:

Row | IC50 (KRAS G12C) | IC50 (KRAS G12D) | IC50 (KRAS G13C) | IC50 (KRAS G12S) | IC50 (NRAS G12C) | IC50 (KRAS G13D) | IC50 (KRAS WT) | IC50 (KRAS G12V) | IC50 (NCI-H358 (K-Ras G12C)) | EC50 [1] | SMILES
4 | 100 to 1000 nM | > 10000 nM | 1000 to 10000 nM | > 10000 nM | 1000 to 10000 nM | > 10000 nM | > 10000 nM | > 10000 nM | > 1000 nM | < 5000 nM | C=CC(=O)N1CC(NC[C@H](C(=O)N[C@H]2Cc3cc(O)cc(c3)-c3ccc4c(c3)c(c(-c3cccnc3COC)n4CC)CC(C)(C)COC(=O)[C@@H]3CCCN(N3)C2=O)C(C)C)C1 [Example A174]
5 | 100 to 1000 nM | > 10000 nM | 1000 to 10000 nM | 1000 to 10000 nM | 100 to 1000 nM | 1000 to 10000 nM | 1000 to 10000 nM | 1000 to 10000 nM | 10 to 100 nM | < 5000 nM | C=CC(=O)N1CC[C@H](C(=O)N(C)[C@H](C(=O)N[C@H]2Cc3cc(O)cc(c3)-c3ccc4c(c3)c(c(-c3cccnc3[C@H](C)OC)n4C)CC(C)(C)COC(=O)[C@@H]3CCCN(N3)C2=O)C(C)C)C1 [Example A197]

Reference: patent publication US20230233569A1 (Revolution Medicines, Inc., priority 2020, published 2023)
